One test addresses Histamine H1 receptor (Cavia porcellus, UniProt P31389). Description: Displacement of [3H]mepyramine from histamine H1 receptor in guinea pig cerebellum after 60 mins by liquid scintillation counting analysis.
Test [1] deals with 5-hydroxytryptamine receptor 2A (Rattus norvegicus, UniProt P14842). Description: Displacement of [3H]ketanserin from 5HT2A receptor in rat cerebral cortex after 15 mins by liquid scintillation counting analysis. The test is classed as tissue-based.
A further test concerns the target D(2) dopamine receptor (Rattus norvegicus, UniProt P61169).
The target of test [2] is T1, Adrenergic receptor alpha-2 (Rattus norvegicus, UniProt P22086+P19328+P22909).
T1 sequence (P22086 whole entry): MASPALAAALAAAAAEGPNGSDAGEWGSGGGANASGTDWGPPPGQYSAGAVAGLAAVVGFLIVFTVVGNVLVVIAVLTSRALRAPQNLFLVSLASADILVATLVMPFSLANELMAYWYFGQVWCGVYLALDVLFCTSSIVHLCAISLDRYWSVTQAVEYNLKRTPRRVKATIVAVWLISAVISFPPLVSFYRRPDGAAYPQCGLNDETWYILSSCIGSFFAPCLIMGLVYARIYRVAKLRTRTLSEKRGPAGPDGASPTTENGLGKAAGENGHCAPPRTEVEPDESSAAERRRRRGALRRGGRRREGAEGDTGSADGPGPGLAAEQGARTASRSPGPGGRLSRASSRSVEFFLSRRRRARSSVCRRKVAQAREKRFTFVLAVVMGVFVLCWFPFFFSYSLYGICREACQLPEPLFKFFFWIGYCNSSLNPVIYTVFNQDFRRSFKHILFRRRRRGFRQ
T1 sequence (P19328 whole entry): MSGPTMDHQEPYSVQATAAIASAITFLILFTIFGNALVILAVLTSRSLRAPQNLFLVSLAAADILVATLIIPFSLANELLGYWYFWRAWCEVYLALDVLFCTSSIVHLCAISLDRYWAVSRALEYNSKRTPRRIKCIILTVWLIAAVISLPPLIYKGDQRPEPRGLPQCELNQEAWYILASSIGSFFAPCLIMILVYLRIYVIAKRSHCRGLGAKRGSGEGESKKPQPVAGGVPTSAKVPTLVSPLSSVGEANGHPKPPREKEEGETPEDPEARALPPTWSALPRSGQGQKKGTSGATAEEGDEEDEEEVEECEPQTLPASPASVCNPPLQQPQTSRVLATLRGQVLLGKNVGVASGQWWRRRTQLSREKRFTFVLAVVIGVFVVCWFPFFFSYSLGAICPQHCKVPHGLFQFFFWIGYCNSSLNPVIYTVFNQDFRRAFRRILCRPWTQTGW
T1 sequence (P22909 whole entry): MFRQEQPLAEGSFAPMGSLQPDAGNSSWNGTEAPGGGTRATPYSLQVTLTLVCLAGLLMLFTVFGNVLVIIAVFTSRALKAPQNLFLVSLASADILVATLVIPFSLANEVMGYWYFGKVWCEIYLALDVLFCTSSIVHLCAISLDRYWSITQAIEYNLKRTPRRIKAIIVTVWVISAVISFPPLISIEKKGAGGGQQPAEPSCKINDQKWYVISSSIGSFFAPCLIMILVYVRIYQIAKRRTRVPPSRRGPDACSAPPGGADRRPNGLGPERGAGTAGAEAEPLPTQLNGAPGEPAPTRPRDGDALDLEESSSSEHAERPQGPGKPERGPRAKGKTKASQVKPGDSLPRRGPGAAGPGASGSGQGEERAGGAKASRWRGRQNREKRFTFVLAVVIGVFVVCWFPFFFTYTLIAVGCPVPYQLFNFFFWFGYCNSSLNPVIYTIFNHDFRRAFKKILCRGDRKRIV
Description: Displacement of [3H]rauwolscine from alpha-2 adrenergic receptor in rat cerebral cortex after 60 mins by liquid scintillation counting analysis

The target of another test is D(3) dopamine receptor (Rattus norvegicus, UniProt P19020). Kind of test: biochemical.
Sequence of D(3) dopamine receptor (P19020 whole entry): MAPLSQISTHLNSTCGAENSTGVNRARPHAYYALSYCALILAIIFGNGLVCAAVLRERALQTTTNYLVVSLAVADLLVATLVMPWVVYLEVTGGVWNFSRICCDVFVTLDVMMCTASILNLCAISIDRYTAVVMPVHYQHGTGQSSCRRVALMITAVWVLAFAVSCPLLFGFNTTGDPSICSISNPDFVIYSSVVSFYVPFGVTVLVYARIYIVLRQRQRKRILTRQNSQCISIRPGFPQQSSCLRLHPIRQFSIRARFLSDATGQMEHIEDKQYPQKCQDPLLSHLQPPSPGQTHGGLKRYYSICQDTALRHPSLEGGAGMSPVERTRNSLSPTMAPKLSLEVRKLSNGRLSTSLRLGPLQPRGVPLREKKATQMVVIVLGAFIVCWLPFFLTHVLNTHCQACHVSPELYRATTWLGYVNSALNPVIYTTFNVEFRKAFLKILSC
The target of test [3] is T2, 5-hydroxytryptamine receptor 1A (Rattus norvegicus, UniProt P19327).
T2 sequence (P19327 whole entry): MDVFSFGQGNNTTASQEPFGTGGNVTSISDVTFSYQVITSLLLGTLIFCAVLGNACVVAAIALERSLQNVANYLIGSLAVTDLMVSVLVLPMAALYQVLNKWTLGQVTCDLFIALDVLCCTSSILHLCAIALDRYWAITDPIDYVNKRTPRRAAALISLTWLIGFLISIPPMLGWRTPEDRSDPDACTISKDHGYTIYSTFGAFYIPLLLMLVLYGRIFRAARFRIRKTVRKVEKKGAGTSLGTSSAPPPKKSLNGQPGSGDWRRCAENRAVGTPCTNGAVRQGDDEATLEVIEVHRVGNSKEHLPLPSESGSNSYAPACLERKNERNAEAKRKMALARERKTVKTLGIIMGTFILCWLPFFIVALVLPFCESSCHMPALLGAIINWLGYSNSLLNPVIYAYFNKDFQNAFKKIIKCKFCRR
Description: biochemical.
Description: Displacement of [3H]8-OH-DPAT from 5HT1A receptor in rat cerebral cortex after 30 mins by liquid scintillation counting analysis

Test [4] deals with T3, 5-hydroxytryptamine receptor 2C (Rattus norvegicus, UniProt P08909).
T3 sequence (P08909 whole entry): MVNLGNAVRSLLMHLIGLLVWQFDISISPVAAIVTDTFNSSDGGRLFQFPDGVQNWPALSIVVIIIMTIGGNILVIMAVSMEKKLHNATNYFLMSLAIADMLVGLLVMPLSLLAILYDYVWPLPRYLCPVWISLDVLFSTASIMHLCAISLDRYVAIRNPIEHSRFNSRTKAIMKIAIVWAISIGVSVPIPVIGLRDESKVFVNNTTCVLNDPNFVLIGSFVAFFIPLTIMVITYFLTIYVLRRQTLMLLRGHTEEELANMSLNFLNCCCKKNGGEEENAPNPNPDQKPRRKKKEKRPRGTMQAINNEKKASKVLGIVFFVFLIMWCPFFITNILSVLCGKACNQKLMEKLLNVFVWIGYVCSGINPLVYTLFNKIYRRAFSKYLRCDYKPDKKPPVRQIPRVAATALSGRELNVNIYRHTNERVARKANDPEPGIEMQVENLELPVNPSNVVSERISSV
Description: biochemical.
Description: Displacement of [3H]mesulergine from 5HT2C receptor in rat cerebral cortex after 15 mins by liquid scintillation counting analysis

Where only a bound is given, the exact number is not on record here.

In ChEMBL document CHEMBL2385071, “Synthesis and biological investigation of coumarin piperazine (piperidine) derivatives as potential multireceptor atypical antipsychotics” (J Med Chem, 2013) one finds Ki data, which are given here for 6 compounds.

Sequence of Histamine H1 receptor (P31389 whole entry): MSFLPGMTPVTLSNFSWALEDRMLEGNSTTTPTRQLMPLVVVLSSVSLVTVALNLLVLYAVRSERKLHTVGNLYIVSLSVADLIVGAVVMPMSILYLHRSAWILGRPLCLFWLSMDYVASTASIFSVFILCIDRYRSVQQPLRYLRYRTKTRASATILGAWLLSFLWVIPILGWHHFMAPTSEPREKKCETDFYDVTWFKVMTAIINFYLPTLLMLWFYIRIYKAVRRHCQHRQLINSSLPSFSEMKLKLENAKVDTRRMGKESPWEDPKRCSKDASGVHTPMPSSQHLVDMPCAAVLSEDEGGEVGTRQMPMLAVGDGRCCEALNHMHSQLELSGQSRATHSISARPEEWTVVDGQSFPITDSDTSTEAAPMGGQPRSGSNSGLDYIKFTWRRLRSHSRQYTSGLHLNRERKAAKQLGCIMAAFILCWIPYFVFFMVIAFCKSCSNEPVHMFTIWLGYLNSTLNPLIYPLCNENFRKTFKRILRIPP
Sequence of 5-hydroxytryptamine receptor 2A (P14842 whole entry): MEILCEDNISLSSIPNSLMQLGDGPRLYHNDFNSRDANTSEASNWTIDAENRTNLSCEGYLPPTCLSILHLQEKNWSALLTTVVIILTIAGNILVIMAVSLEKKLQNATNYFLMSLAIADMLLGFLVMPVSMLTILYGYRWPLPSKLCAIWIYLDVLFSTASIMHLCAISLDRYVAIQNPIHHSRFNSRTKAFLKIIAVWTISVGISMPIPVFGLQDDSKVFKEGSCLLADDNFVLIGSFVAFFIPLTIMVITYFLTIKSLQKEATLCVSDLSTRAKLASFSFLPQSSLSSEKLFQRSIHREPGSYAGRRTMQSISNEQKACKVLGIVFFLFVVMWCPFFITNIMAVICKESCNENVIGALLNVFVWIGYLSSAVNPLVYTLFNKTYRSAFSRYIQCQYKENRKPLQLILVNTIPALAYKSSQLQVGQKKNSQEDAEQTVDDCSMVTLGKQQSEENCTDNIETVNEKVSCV
Sequence of D(2) dopamine receptor (P61169 whole entry): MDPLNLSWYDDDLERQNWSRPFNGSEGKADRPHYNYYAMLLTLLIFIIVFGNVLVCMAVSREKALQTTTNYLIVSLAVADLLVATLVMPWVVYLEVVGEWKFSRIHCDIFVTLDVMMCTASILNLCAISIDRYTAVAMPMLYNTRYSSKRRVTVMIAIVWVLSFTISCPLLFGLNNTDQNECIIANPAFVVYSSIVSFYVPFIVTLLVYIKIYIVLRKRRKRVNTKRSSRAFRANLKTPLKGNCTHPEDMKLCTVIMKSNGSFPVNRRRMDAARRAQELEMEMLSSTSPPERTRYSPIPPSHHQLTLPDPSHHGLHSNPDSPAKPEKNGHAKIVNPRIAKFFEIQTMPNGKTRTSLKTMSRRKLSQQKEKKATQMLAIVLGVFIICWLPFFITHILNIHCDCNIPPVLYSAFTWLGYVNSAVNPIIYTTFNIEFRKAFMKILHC

With `Cc1cc(=O)oc2c(C)c(OCCCCN3CCC(c4noc5cc(F)ccc45)CC3)ccc12`, the Ki at Histamine H1 receptor was 21.3 nM; in test [1], 0.9 nM; on D(2) dopamine receptor, 5.3 nM; in test [2] it was 598.6 nM; at D(3) dopamine receptor, 13.6 nM; in test [3], 12.9 nM. Also, in test [4], the affinity corresponds to a Ki of 68.9 nM.

Turning to `COc1ccccc1N1CCN(CCCCOc2ccc3c(C)cc(=O)oc3c2)CC1`, the Ki was over 10000 nM on Histamine H1 receptor; 8 nM in test [1]; 1.4 nM at D(2) dopamine receptor; 86.9 nM in test [2]; 4.8 nM on D(3) dopamine receptor; 0.012 nM in test [3]. The affinity in test [4], expressed as Ki, was 1000 nM.

Turning to `Cc1cc(=O)oc2c(Cl)c(OCCCCN3CCC(c4noc5cc(F)ccc45)CC3)ccc12`, the Ki at Histamine H1 receptor is 1130 nM; in test [1], 0.3 nM; at D(2) dopamine receptor, 2.6 nM; in test [2], 15.6 nM; at D(3) dopamine receptor, 4.3 nM; in test [3] it was 3.3 nM. This compound also had a Ki in test [4] of 1700 nM.

`Cc1cc(=O)oc2cc(OCCCCN3CCC(c4noc5cc(F)ccc45)CC3)ccc12`: the Ki amounted to 19.6 nM at Histamine H1 receptor; 8.4 nM in test [1]; 4.9 nM at D(2) dopamine receptor; 159.6 nM in test [2]; 71.3 nM at D(3) dopamine receptor; 3.5 nM in test [3]. In test [4], this compound gave a Ki of 11.9 nM.

Take `Cc1c(C)c2ccc(OCCCCN3CCC(c4noc5cc(F)ccc45)CC3)cc2oc1=O`: the Ki on Histamine H1 receptor is 550 nM; in test [1], 0.3 nM; on D(2) dopamine receptor, 4 nM; in test [2] it was 124.3 nM; at D(3) dopamine receptor, 30.6 nM; in test [3] it was 16.7 nM. The same compound returned a Ki in test [4] of 389 nM.

Consider `O=c1cc(-c2ccccc2)c2ccc(OCCCCN3CCC(c4noc5cc(F)ccc45)CC3)cc2o1`, for which the Ki at Histamine H1 receptor is 38.1 nM; in test [1], 9.2 nM; at D(2) dopamine receptor it was 14.8 nM; in test [2], 46.9 nM; at D(3) dopamine receptor, 72.7 nM; in test [3], 12.7 nM. The compound further displayed a Ki in test [4] of 256 nM.
